The values that follow come from ChEMBL document CHEMBL5154923 (J Med Chem, 2022).

Calls of active or inactive are those of the source. No cut-off for these calls is given here.

Series [1] deals with AP2-associated protein kinase 1 (Homo sapiens) (UniProt Q2M2I8). Nature of the series: Binding affinity to AAK1 (unknown origin) assessed as change in melting temperature at 10 uM by SYPRO orange dye based DSF assay. In general terms: DSF heats the sample and reads unfolding from a dye or from intrinsic fluorescence.
Chain of AP2-associated protein kinase 1 (Homo sapiens) (Q2M2I8 whole entry, looked up): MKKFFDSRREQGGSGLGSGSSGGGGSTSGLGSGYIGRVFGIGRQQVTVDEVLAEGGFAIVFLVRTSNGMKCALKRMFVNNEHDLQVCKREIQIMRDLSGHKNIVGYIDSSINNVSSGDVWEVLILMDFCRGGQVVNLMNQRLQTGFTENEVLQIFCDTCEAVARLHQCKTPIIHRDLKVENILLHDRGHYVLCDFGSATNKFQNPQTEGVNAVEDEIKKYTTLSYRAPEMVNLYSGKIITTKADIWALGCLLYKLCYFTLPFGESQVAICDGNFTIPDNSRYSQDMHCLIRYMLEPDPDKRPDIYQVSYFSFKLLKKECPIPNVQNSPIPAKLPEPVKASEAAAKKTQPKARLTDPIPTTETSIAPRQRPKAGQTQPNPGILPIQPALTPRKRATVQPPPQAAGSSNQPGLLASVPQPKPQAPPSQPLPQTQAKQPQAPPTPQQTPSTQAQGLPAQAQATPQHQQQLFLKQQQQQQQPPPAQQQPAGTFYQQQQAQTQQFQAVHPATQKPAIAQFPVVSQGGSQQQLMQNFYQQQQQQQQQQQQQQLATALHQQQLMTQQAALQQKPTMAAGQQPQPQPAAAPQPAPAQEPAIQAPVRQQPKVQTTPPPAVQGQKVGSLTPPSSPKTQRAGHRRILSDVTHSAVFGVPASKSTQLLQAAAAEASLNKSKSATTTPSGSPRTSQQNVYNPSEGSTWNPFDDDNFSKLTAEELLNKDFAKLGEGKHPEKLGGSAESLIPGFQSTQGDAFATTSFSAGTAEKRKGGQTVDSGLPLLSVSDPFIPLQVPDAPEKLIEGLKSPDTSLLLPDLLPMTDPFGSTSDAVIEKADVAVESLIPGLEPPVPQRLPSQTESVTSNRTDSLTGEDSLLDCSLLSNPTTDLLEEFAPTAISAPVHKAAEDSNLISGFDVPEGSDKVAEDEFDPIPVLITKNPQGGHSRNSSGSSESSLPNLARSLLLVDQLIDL
The subject of a further series is U2OS. Kind of series: Cytotoxicity against human U2OS cells assessed as increase in total apoptotic cells at 10 uM incubated for 36 hrs by Annexin V staining based method. The format is functional, cell-based.
Series [2] addresses T1, Serine/threonine-protein kinase 17A (Homo sapiens, UniProt Q9UEE5).
T1 sequence (Q9UEE5 whole entry): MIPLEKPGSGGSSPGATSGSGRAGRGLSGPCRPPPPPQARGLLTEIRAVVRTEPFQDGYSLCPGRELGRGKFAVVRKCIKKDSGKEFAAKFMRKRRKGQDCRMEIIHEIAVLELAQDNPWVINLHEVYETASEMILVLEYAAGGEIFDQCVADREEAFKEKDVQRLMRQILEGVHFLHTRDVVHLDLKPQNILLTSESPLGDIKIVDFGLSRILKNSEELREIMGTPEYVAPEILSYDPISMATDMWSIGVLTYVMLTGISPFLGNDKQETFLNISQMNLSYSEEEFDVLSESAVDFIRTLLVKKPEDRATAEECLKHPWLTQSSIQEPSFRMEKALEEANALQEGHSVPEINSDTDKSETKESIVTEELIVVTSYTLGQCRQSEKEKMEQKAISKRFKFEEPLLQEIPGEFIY
Kind of series: Binding affinity to human N-terminal His-tagged/ TEV cleavage fused DRAK1 (39 to 369 residues) expressed in Escherichia coli by isothermal titration calorimetry. (In general: ITC needs no label: the signal is the heat of the interaction.)

Series [3] relates to T98G. Nature of the series: Antiproliferative activity against human T98G cells assessed as reduction in cell viability measured after 1 to 7 days by resazurin dye based fluorimetric analysis. The format is functional. On the technique in general: Alamar Blue is a resazurin reagent that responds to reducing activity.
The subject of a further series is D-247MG. Nature of the series: Antiproliferative activity against human D-247MG cells assessed as reduction in cell viability after 1 to 7 days by resazurin dye based fluorimetric analysis. The format is functional.
Series [4] is described as follows: Inhibition of CK2alpha2 (unknown origin) transfected in HEK293T cells using NanoBRET NanoGlo as substrate incubated for 2 hrs by NanoBRET assay. The format is cell-based. The settings on record: Homo sapiens, HEK-293T.
The test system of series [5] is HEK-293T. Kind of series: Cytotoxicity against human HEK293T cells assessed as increase in total apoptotic cells at 10 uM incubated for 18 hrs by Annexin V staining based method. The format is toxicity, cell-based.
For series [6], the system named is T98G. Nature of the series: Induction of morphological changes in human T98G cells assessed as change in cell shape at 12.5 uM incubated for 5 days by microscopy analysis. Particulars: time 5.0 day. The format is functional, cell-based.
In series [7] the test system is HEK-293T. Kind of series: Cytotoxicity against human HEK293T cells at 1 uM incubated for 18 hrs. The format is toxicity, cell-based.
The target in series [8] is T1, Serine/threonine-protein kinase 17A. Kind of series: Inhibition of human N-terminal His-tagged/ TEV cleavage fused DRAK1 (39 to 369 residues) transfected in HEK293T cells using NanoBRET NanoGlo as substrate incubated for 2 hrs by NanoBRET assay. The format is cell-based.
The target of series [9] is T2, Casein kinase II subunit alpha (Homo sapiens, UniProt P68400). Kind of series: Inhibition of CK2alpha1(unknown origin) transfected in HEK293T cells using NanoBRET NanoGlo as substrate incubated for 2 hrs by NanoBRET assay. The format is cell-based.
Target sequence in this assay (P68400 whole entry): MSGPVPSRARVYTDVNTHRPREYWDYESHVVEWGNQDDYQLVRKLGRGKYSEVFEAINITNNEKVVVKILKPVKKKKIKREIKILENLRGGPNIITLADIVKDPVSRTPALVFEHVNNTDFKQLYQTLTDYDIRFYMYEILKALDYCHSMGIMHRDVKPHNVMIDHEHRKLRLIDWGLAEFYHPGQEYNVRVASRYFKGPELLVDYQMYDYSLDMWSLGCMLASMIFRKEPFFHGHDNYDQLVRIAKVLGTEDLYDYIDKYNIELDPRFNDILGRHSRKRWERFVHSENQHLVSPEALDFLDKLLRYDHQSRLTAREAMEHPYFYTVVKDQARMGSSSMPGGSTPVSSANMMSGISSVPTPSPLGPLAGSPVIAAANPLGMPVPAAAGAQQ
Series [10] has as its target T3, Serine/threonine-protein kinase 17B (Homo sapiens, UniProt O94768).
T3 sequence (O94768 whole entry): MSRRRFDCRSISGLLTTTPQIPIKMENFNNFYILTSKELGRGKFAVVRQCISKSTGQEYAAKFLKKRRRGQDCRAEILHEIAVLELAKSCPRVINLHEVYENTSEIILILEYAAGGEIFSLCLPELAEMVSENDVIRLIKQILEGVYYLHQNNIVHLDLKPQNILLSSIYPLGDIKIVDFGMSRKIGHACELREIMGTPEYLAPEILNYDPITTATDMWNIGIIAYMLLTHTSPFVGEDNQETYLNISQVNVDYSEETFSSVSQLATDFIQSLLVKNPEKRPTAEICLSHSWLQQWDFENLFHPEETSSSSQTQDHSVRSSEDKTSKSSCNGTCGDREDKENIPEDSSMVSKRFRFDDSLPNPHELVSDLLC
Nature of the series: Inhibition of DRAK2 (unknown origin) transfected in HEK293T cells using NanoBRET NanoGlo as substrate incubated for 2 hrs by NanoBRET assay. The format is cell-based.

Series [11] can be described thus: Cytotoxicity against human HEK293T cells assessed as increase in total apoptotic cells incubated for 36 hrs by Annexin V staining based method. The format is toxicity, cell-based, HEK-293T.
Series [12] addresses T2, Casein kinase II subunit alpha. Nature of the series: Binding affinity to wild type full length human CK2alpha1 (1 to 391 residues) expressed in mammalian expression system assessed as change in melting temperature at 10 uM by SYPRO orange dye based DSF assay.
Target sequence in this assay (P68400 whole entry, looked up): as the sequence (P68400 whole entry) above
The nature of series [13]: Cytotoxicity against human MRC9 cells assessed as increase in total apoptotic cells at 10 uM incubated for 36 hrs by Annexin V staining based method. Particulars: mrc9, 36 h. The format is toxicity, cell-based.
Series [14] concerns the target BMP-2-inducible protein kinase (Homo sapiens, UniProt Q9NSY1). Nature of the series: Binding affinity to BIKE (unknown origin) assessed as change in melting temperature at 10 uM by SYPRO orange dye based DSF assay.
The test system of series [15] is HEK-293T. Nature of the series: Cytotoxicity against human HEK293T cells at 1 uM incubated for 36 hrs. The format is toxicity, cell-based.
For a further series, the system named is LN-229. Kind of series: Antiproliferative activity against human LN-229 cells assessed as reduction in cell viability after 1 to 7 days by resazurin dye based fluorimetric analysis. The format is functional.
The target in series [16] is T4, Serine/threonine-protein kinase 17A (Homo sapiens) (UniProt Q9UEE5).
T4 sequence (whole entry): T1 sequence (Q9UEE5 whole entry)
Nature of the series: Inhibition of human N-terminal His-tagged/ TEV cleavage fused DRAK1 (39 to 369 residues) expressed in Escherichia coli assessed as change in enthalpy by isothermal titration calorimetry.

Series [17] can be described thus: Binding affinity to wild type full length human CK2alpha2 (1 to 350 residues) expressed in mammalian expression system assessed as change in melting temperature by SYPRO orange dye based DSF assay.

Chain of BMP-2-inducible protein kinase (Q9NSY1 whole entry, looked up): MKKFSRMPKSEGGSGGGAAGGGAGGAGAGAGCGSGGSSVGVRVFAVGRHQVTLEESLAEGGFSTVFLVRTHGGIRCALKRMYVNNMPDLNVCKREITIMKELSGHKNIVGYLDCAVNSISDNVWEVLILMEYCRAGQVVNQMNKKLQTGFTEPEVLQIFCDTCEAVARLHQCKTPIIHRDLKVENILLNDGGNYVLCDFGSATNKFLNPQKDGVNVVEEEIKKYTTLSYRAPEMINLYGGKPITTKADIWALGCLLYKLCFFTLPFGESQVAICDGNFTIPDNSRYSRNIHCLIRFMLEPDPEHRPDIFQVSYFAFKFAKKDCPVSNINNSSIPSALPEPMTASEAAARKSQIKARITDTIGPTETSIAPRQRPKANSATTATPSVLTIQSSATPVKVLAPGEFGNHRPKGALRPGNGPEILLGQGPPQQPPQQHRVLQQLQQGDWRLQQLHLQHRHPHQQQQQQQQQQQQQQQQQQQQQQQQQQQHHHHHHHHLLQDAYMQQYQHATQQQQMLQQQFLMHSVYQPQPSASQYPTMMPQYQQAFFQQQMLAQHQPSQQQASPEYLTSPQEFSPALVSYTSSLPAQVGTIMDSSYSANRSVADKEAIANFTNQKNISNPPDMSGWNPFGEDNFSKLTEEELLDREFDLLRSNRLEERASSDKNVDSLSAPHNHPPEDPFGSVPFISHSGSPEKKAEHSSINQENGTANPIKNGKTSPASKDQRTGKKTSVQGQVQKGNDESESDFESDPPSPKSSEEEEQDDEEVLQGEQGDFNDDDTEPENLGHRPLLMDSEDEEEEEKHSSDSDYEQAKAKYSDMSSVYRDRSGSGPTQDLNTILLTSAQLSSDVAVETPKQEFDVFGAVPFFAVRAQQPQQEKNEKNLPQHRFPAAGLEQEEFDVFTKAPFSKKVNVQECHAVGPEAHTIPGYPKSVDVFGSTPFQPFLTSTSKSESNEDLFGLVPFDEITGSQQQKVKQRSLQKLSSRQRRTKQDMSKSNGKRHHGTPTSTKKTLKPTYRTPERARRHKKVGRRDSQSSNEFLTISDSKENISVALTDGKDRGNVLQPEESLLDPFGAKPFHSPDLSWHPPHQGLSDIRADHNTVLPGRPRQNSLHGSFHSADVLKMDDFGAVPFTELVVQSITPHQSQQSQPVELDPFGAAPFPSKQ

For `CC(C)(C)NC(=O)c1ccc2cc1OCCOCCNc1ccn3ncc-2c3n1`, the thermal shift (ΔTm) (commonly the change in melting temperature against a reference sample) in series [1] was above 5 °C; in series [12], 0.8 °C; in [14] it was above 5 °C; in [17] it was 2.3 °C. The result with U2OS and in the series with T98G [6] was Active. The affinity in [2], expressed as Kd, was 0.021 µM. Also, the EC50 (as a rule, the midpoint of the concentration-response curve) amounted to 10.4 µM in the series with T98G [3], 2.75 µM in the series on D-247MG and 9.2 µM in the series with LN-229. The concentration for half-maximal inhibition (IC50) (commonly the concentration needed to halve the response being measured) in series [4] was found to be 39 µM; in series [8], 0.182 µM; in series [9], 34 µM; in [10] it was 8.4 µM. Also, the Activity result in the series with HEK-293T [5] is recorded as “Toxic”; in the series with HEK-293T [7], “Non-Toxic”; in series [13], “Toxic”; with HEK-293T [15] it was “Non-Toxic”. Moreover, the EC50 at 36 h in series [11] was above 10 µM. Besides, the deltaH in series [16] is -7.39 kcal/mol.
